Structures are written as SMILES.

In the assay the target is T1, Human MrgprX2 (Homo sapiens, UniProt Q96LB1).
T1 construct: expressed in transfected cells
T1 sequence (Q96LB1 1-330): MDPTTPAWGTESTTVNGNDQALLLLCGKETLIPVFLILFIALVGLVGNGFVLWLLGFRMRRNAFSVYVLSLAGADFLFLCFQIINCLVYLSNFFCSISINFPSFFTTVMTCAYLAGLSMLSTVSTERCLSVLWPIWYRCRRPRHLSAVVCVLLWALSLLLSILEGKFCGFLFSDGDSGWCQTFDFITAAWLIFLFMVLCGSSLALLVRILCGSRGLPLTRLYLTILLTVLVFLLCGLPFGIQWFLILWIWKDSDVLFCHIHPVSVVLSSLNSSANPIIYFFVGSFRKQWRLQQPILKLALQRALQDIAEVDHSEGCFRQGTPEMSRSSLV
In words: Human MrgprX2 antagonist FLIPR intracellular calcium mobilization assay. The assay is classed as cell-based. The following applies: antagonist activity, recombinant hMrgpMRGPRX2 expressing cells, read-out: Human MrgprX2 Antagonist pIC50 (converted). An excerpt: Potent and selective hMrgpMRGPRX2 compounds have been generated from compounds identified during a high throughput screening (HTS) campaign and followed up with cycles of structure activity based medicinal chemistry efforts. These compounds were characterized in recombinant hMrgpMRGPRX2 expressing cells for their antagonist activity and the potency was confirmed in the human mast cell line LAD-2, where the target is endogenously expressed. The assays used to determine potencies are functional read-out looking at intracellular calcium mobilization using the FLIPR™ technology. In these FLIPR assays, we test the identified compounds using recombinant cellular systems expressing mouse MrgprB2, mouse MrgprA1, gerbil MrgpMRGPRX2 orthologue, Chinese hamster MrgpMRGPRX2 orthologue and cynomolgus monkey MrgpMRGPRX2 orthologue, respectively for orthologue activity.
Turning to `CN(C[C@H](O)C(F)(F)F)C(=O)Nc1ncc(Cc2cccc(F)c2)s1` [Compound E109], the IC50 was 25.1 nM.

For `CCN(C[C@H](C)O)C(=O)Nc1ncc(Oc2ccc(C#N)cc2)s1` [Compound E147, 3-[5-(4-cyanophenoxy)thiazol-2-yl]-1-ethyl-1-[(2S)-2-hydroxypropyl]urea], the IC50 was 3.16 nM.

`CC1(C(=O)Nc2ncc(Oc3ccc(F)cc3)s2)CCOCC1` [Compound E077]: the IC50 was 39.8 nM.

`N#CC1(C(=O)Nc2ncc(Cc3ccccc3F)s2)CCOCC1` [Compound E028]: the IC50 is 6310 nM.

As for `CCN(C[C@H](C)O)C(=O)Nc1ncc(Cc2cc(F)ccc2OC)s1` [Compound E139], the IC50 is 39.8 nM.

`CC(C(=O)Nc1ncc(Cc2ccccc2F)s1)N1CCCC1` (stereo not drawn) [Compound E017]: the IC50 was 1260 nM.

Turning to `CCN(CCO)C(=O)Nc1ncc(Oc2ccc(F)cc2)s1` [Compound E186], the IC50 is 31.6 nM.

Regarding `C[C@H](O)CN(C)C(=O)Nc1ncc(Oc2cc(F)ccc2C#N)s1` [Compound E195], the IC50 was 2000 nM.

On to `CC(C)C(=O)Nc1cnc(Cc2cccc(F)c2)s1` [Compound E216, N-[2-[(3-fluorophenyl)methyl]thiazol-5-yl]-2-methyl-propanamide], for which the IC50 is 7940 nM.

As for `CC(C)C(=O)Nc1ncc(Cc2cc(F)cc(F)c2)s1` [Compound E041], the IC50 is 2 nM.

In the case of `C[C@@H](O)CN(C)C(=O)Nc1ncc(Oc2ccccc2)s1` [Compound E148], the IC50 was 15.8 nM.

As for `CCN(C[C@H](C)O)C(=O)Nc1ncc(Oc2cc(C)cc(C#N)c2)s1` [Compound E206], the IC50 is 6.31 nM.

As to `CCN(C[C@H](C)O)C(=O)Nc1ncc(Oc2ccc(F)c(C#N)c2)s1` [Compound E184], the IC50 was 5.01 nM.

In the case of `CS(=O)(=O)N1CCC[C@@H]1C(=O)Nc1ncc(Cc2cccc(F)c2)s1` [Compound E056, (2R)—N-[5-[(3-fluorophenyl)methyl]thiazol-2-yl]-1-methylsulfonyl-pyrrolidine-2-carboxamide], the IC50 is 1580 nM.

Consider `CC1(C(=O)Nc2ncc(Oc3cncc(F)c3)s2)CCOCC1` [Compound E080], for which the IC50 is 501 nM.

For the compound `CC(C)C(=O)Nc1ncc(C(C)c2ccccc2)s1` (stereo not drawn) [Compound E219, 2-methyl-N-[5-(1-phenylethyl)thiazol-2-yl]propanamide], the IC50 is 794 nM.

As for `Cc1nc(NC(=O)C(C)C)sc1Cc1ccccc1` [Compound E040], the IC50 was 631 nM.

As for `CC1(C(=O)Nc2ncc(Oc3ccccc3)s2)CCOCC1` [Compound E020], the IC50 was 126 nM.

On to `CC1(C(=O)Nc2ncc(Cc3cc(F)cc(F)c3)s2)COC1` [Compound E047], for which the IC50 is 25.1 nM.

On to `CC(=O)N1CCC[C@@H]1C(=O)Nc1ncc(Cc2cccc(F)c2)s1` [Compound E055, (2R)-1-acetyl-N-[5-[(3-fluorophenyl)methyl]thiazol-2-yl]pyrrolidine-2-carboxamide], for which the IC50 was 3980 nM.

In the case of `CC1(C(=O)Nc2ncc(Cc3ccc(F)c(F)c3)s2)CCOCC1` [Compound E045], the IC50 is 158 nM.

Regarding `O=C(Nc1ncc(Cc2cccc(F)c2)s1)C1(CO)CC1` [Compound E029], the IC50 is 631 nM.

`CC1(C(=O)Nc2ncc(Cc3cccc(F)c3F)s2)CCOCC1` [Compound E095]: the IC50 is 158 nM.

For the compound `CCN(C[C@@H](C)O)C(=O)Nc1ncc(Oc2ccc(C#N)cc2)s1` [Compound E211], the IC50 is 398 nM.

As to `CN(CC(=O)Nc1ncc(Cc2cccc(F)c2)s1)S(N)(=O)=O` [Compound E067], the IC50 was 10000 nM.

Take `NS(=O)(=O)N1CCCC[C@@H]1C(=O)Nc1ncc(Cc2cccc(F)c2)s1` [Compound E066]: the IC50 is 31.6 nM.

`C[C@@H](CO)C(=O)Nc1ncc(Cc2cccc(F)c2)s1` [Compound E031]: the IC50 is 2000 nM.

Take `O=C(Nc1ncc(Cc2cccc(F)c2)s1)C1(C(F)(F)F)CC1` [Compound E027]: the IC50 is 100 nM.

For the compound `C[C@H](O)CN(C)C(=O)Nc1ncc(Cc2ccccc2F)s1` [Compound E102], the IC50 was 251 nM.

In the case of `C[C@H](O)CN(C)C(=O)Nc1ncc(Oc2cccc(C(F)(F)F)c2)s1` [Compound E182], the IC50 is 20 nM.

As for `CCN(C[C@H](C)O)C(=O)Nc1ncc(Oc2cccnc2F)s1` [Compound E203], the IC50 is 100 nM.

Take `C[C@H](O)CN(C)C(=O)Nc1ncc(Oc2ccc(F)cc2C#N)s1` [Compound E192]: the IC50 is 3160 nM.

In the case of `N#Cc1ccc(Oc2cnc(NC(=O)[C@H]3CCCN3S(N)(=O)=O)s2)cc1` [Compound E091, (2R)—N-[5-(4-cyanophenoxy)thiazol-2-yl]-1-sulfamoyl-pyrrolidine-2-carboxamide], the IC50 is 1580 nM.

In the case of `C[C@@]1(C(=O)Nc2ncc(Oc3cccc(F)c3)s2)CCOC1` (single isomer, unassigned) [Compound E083, N-[5-(3-fluorophenoxy)thiazol-2-yl]-3-methyl-tetrahydrofuran-3-carboxamide], the IC50 is 3.98 nM.

Consider `CCN(C[C@H](C)O)C(=O)Nc1ncc(Oc2ccc(F)nc2)s1` [Compound E170], for which the IC50 is 3.98 nM.

For the compound `C[C@]1(C(=O)Nc2ncc(Oc3cccc(F)c3)s2)CCOC1` (single isomer, unassigned) [Compound E084, N-[5-(3-fluorophenoxy)thiazol-2-yl]-3-methyl-tetrahydrofuran-3-carboxamide], the IC50 is 3.16 nM.

Regarding `C[C@H](O)CN(C)C(=O)Nc1ncc(Oc2cccc(F)c2C#N)s1` [Compound E200], the IC50 is 1580 nM.

Regarding `C[C@H](O)CN(C)C(=O)Nc1ncc(Oc2ccccc2C#N)s1` [Compound E174], the IC50 was 631 nM.

Take `O=C(Nc1ncc(Cc2cccc(F)c2)s1)N1CCC[C@H]1CO` [Compound E120]: the IC50 is 398 nM.

Consider `CC(C)(C)OC(=O)N1CCC(C)(C(=O)Nc2ncc(Cc3ccccc3F)s2)CC1` [Compound E018], for which the IC50 is 316 nM.

`O=C(Nc1ncc(Cc2cccc(F)c2)s1)N1CCOC[C@@H]1CO` [Compound E124]: the IC50 is 794 nM.

For the compound `CCN(C[C@@H](C)O)C(=O)Nc1ncc(Oc2ccc(F)cc2)s1` [Compound E204], the IC50 is 3.16 nM.

`CCN(C[C@H](C)O)C(=O)Nc1ncc(Oc2ccccc2F)s1` [Compound E171]: the IC50 is 0.794 nM.

Turning to `CC(C)C(=O)Nc1ncc(Oc2cccnc2)s1` [Compound E071], the IC50 is 6310 nM.

Turning to `C[C@@]1(C(=O)Nc2ncc(Cc3cc(F)cc(F)c3)s2)CCOC1` (single isomer, unassigned) [Compound E052, N-[5-[(3,5-difluorophenyl)methyl]thiazol-2-yl]-3-methyl-tetrahydrofuran-3-carboxamide], the IC50 was 3.98 nM.

With `O=C(Nc1ncc(Oc2ccccc2)s1)[C@H]1CCCN1` [Compound E085, (2R)—N-(5-phenoxythiazol-2-yl)pyrrolidine-2-carboxamide], the IC50 was 2510 nM.

For `C[C@H](O)CN(C)C(=O)Nc1ncc(Oc2ccc(C#N)cc2)s1` [Compound E156], the IC50 was 39.8 nM.

For the compound `CCN(C[C@H](C)O)C(=O)Nc1ncc(Oc2ccc(C(F)(F)F)cc2)s1` [Compound E161], the IC50 is 316 nM.

For the compound `CCN(C[C@H](C)O)C(=O)Nc1ncc(Oc2ccccc2C#N)s1` [Compound E175], the IC50 is 316 nM.

For `CN(CCO)C(=O)Nc1ncc(Oc2ccc(F)cc2)s1` [Compound E205], the IC50 is 251 nM.

`C[C@@H](O)CN(C)C(=O)Nc1ncc(Cc2cccc(F)c2)s1` [Compound E100]: the IC50 is 251 nM.

As for `Cc1cccc(Cc2cnc(NC(=O)C3(C)CCOCC3)s2)c1` [Compound E024], the IC50 is 398 nM.

For `Cc1cncc(Oc2cnc(NC(=O)N(C)C[C@H](C)O)s2)c1` [Compound E177], the IC50 was 1580 nM.

Regarding `O=C(Nc1ncc(Cc2cccc(F)c2)s1)N1CC[C@@H](CO)C1` [Compound E113], the IC50 was 794 nM.

Regarding `CCN(C[C@H](C)O)C(=O)Nc1ncc(Oc2ccc(C#N)nc2)s1` [Compound E212], the IC50 is 158 nM.

Regarding `CCN(C[C@H](C)O)C(=O)Nc1ncc(Oc2ccc(F)cc2C#N)s1` [Compound E191], the IC50 is 794 nM.

In the case of `C[C@H](O)CN(C)C(=O)Nc1ncc(Oc2cccc(C#N)c2)s1` [Compound E159], the IC50 is 10 nM.

Consider `C[C@H](O)CN(C)C(=O)Nc1ncc(Cc2cccc(Cl)c2)s1` [Compound E116], for which the IC50 is 31.6 nM.

For the compound `C[C@@H](O)CN(C)C(=O)Nc1ncc(Oc2cccc(F)c2)s1` [Compound E150], the IC50 is 1.58 nM.

Regarding `CN(CC1(O)CC1)C(=O)Nc1ncc(Cc2cccc(F)c2)s1` [Compound E122], the IC50 was 6.31 nM.

In the case of `CC(C)C(=O)Nc1ncc(Oc2cccc(F)c2)s1` [Compound E076], the IC50 was 1.26 nM.

As to `CC(C)c1nc2ccc(Oc3ccccc3)cc2[nH]1` [Compound E222, 6-phenoxy-2-(propan-2-yl)-1H-1,3-benzodiazole], the IC50 is 3980 nM.

`C[C@]1(C(=O)Nc2ncc(Cc3cccc(F)c3)s2)CCCN1` [Compound E061, (2R)—N-[5-[(3-fluorophenyl)methyl]thiazol-2-yl]-2-methyl-pyrrolidine-2-carboxamide]: the IC50 was 2000 nM.

For the origin of these results see US12502380B2, “MrgprX2 antagonists for the treatment of inflammatory disorders” (Dermira, Inc., priority 2019, dated 2025).
